Experimental data: article PMC7698151, “Evidence for Pentapeptide-Dependent and Independent CheB Methylesterases” (International Journal of Molecular Sciences, 2020)
Values joined by “and” are separate entries in the source; they are usually repeats but may differ in a detail not shown here. Equal entries are not always repeated. Where no end group is shown, it is not given here.

Experiments:
[1] = target: T1, CheB2 (Pseudomonas aeruginosa, UniProt Q9I6V9); experiment: Microcalorimetric titration (ITC) of CheB2 with the McpB pentapeptide; design: species or system Pseudomonas aeruginosa PAO1; settings: 25 °C, 15-40 μM protein in 5-mM Tris/HCl, 5-mM Pipes, 5-mM Mes, pH 7.0, titrated with 1-7 mM peptide, one binding site model, read-out: dissociation constant (KD)
T1 construct: His-tag (pET28b) (N); made in house; host or cells: E. coli BL21 (DE3)
Experimental: To verify which CheB homolog interacts with this peptide, the four CheB homologs were overexpressed in E. coli, purified, and submitted to microcalorimetric titrations with the pentapeptide of the McpB receptor, GWEEF.
Microcalorimetric titrations of the four CheB homologs (15 to 40 μM) with 14-μL aliquots (1 to 7 mM) of the GWEEF pentapeptide. […] Data were fitted using the “one binding site model” of the MicroCal version of ORIGIN.
(§1) All experiments were conducted on a VP microcalorimeter (Microcal, Amherst, MA, USA) at 25 °C. For the analysis of the CheB homologs of P. aeruginosa, 15–40 μM of proteins (dialyzed into 5-mM Tris/HCl, 5-mM Pipes, and 5-mM Mes, pH 7.0) were placed into the sample cell and titrated with 1–7-mM solution of the GWEEF peptide (synthesized by Biomedal S.L., Seville, Spain). […] All ligand solutions were prepared in dialysis buffer immediately before use. The mean enthalpies measured from the injection of the peptide into the buffer were subtracted from the raw titration data prior to data analysis with the “one binding site model” of the MicroCal version of ORIGIN.

[2] = target: T2, CheB2 D55E mutant protein (Pseudomonas aeruginosa, UniProt Q9I6V9, D55E); experiment: Microcalorimetric titration (ITC) of the CheB2 D55E mutant with the GWEEF peptide; type: binding, Pseudomonas aeruginosa PAO1
T2 construct: His-tag (pET28b) (N); made in house; host or cells: E. coli BL21 (DE3)
T2 sequence (Q9I6V9 1-349 D55E): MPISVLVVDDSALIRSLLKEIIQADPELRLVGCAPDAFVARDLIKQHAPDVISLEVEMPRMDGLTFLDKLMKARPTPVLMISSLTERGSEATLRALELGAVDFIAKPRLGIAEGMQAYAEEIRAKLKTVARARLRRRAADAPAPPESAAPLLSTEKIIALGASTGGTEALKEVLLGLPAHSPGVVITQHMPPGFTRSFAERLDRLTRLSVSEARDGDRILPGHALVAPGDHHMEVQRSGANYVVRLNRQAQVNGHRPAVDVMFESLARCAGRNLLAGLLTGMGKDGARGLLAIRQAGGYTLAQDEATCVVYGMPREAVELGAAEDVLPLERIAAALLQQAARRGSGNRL
Experimental: as §1

[3] = test system: CheR from E. coli; settings: cited from earlier work
Text: This pentapeptide, NWETF, represents an additional binding site for CheR and CheB [8, 9]. […] St ...

T1 sequence (Q9I6V9 whole entry): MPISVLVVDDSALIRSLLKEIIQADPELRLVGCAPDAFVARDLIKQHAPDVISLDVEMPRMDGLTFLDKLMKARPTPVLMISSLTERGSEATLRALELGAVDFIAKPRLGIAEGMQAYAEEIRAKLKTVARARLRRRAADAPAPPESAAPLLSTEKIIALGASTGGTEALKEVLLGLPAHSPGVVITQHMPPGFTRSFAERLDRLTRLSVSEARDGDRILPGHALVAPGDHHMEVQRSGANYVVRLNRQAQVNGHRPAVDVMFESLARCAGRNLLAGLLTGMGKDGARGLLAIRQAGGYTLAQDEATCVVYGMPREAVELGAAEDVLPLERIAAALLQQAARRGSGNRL

Row | Substance | Kd [1] | Kd [2] | Kd [3]
1 | GWEEF [GWEEF] | 0.093 mM | 56 ± 14 µM | 
2 | NWETF [C-terminal pentapeptide of E. coli Tar/Tsr and of eight P. atrosepticum SCRI1043 chemoreceptors] |  |  | 2 µM and ~2 µM
